Experimental data from patent US20050215490A1, “Polyene polyketides and methods of treating bacterial infections” (Ecopia BioSciences, Inc., priority 2003, published 2005).
In brackets after ≈: the same amount, converted by molar mass. Like-named read-outs stand apart in the source and are kept apart here.

Tests used:
Assay type in all cases: cell-based
[1] = tested on: Staphylococcus aureus NRRL B-313 (ATCC™ 6538P); assay: MIC at different pH
Description: Antibacterial activitiy of Compounds.3, 4, 5, 6 and 7 are accomplished using the same method in a panel of bacterial strains and Vancomycin as positive control.
Antibacterial efficacy of Compounds 1, 2, 3, 4, 5 and 6 on bacterial strain Staphylococcus aureus NRRL B-313 (ATCC™ 6538P) was determined at different pH concentrations.

[2] = tested on: Bacillus megaterium (ATCC™ 14581); assay: MIC, broth microdilution (NCCLS M7-A5); settings: Priestia megaterium, ATCC14581, 18 h
Description: (§1) Antibacterial activity of Compounds 1 and 2 (Table 4) was measured by determining the minimal inhibitory concentration (MIC) necessary to obtain a complete inhibition of bacteria growth in eight indicator strains, namely Staphylococcus aureus (ATCC™ 6538P), Staphylococcus aureus MRS3 (ATCC™ 700699), Staphylococcus epidermidis (ATCC™ 12228), Bacillus subtilis (ATCC™ 23857), Bacillus megaterium (ATCC™ 14581), Enterococcus faecalis VRE-1 (ATCC™ 29212), Enterococcus faecalis VRE-2 (ATCC™ 51299) and Micrococcus luteus (ATCC™ 9341). Indicator strains preparation and MIC determination were performed according to the National Committee for Clinical Laboratory Standards (NCCLS) guideline M7-A5 Methods for Dilution Antimicrobial Susceptibility Tests for Bacteria That Grow Aerobically; Approved Standard-Fifth Edition. (NCCLS document M7-A5, ISBN 1-56238-394-9; NCCLS, 940 West Valley Road, Suite 1400, Wayne, Pa. 19087-1898 USA), the content of which is incorporated herein by reference.
(§2) Compounds 1 and 2 were prepared as 100× stock solution in DMSO, with concentrations ranging from 3.2 mg/ml to 0.00625 mg/ml (a two-fold dilution series over […]). An aliquot of each 100× stock solution was diluted 50-fold in test medium described below to give a set of ten (10) 2× solutions ranging from 64 to 0.125 μg/mL. 50 μl of each of the ten 2× solutions was aliquoted into the corresponding well of a 12-well row, with the final well reserved for medium alone control. Each test was made in duplicate.
(§3) Vancomycin (Sigma™) used as positive control compounds, was prepared as 2× stock solutions in sterile, double-distilled water (ddH2O) ranging from 64 μg/ml to […] (a two-fold dilution series over 10 points). An aliquot of 50 μl corresponding to each concentration (at 2×) was then transferred to 96-well microplates to obtain a series of eleven two-fold dilutions.
(§4) An isolated colony of each of the eight indicator strains was used to inoculate tubes containing 3 ml of test medium. Mueller-Hinton test medium was used for Staphylococcus aureus (ATCC™ 6538P), Staphylococcus aureus MRS3 (ATCC™ 700699), Staphylococcus epidermidis (ATCC™ 12228), Bacillus subtilis (ATCC™ 23857), Bacillus megaterium (ATCC™ 14581) and Micrococcus luteus (ATCC™ 9341) indicator strains, and BHI (Brain-Heart Infusion broth) test medium was used for Enterococcus faecalis VRE-1 (ATCC™ 29212) and Enterococcus faecalis VRE-2 (ATCC™ 51299) indicator strains. Cells were grown overnight at 28° C. with shaking. Inoculum density for each indicator strain was adjusted to OD600=0.1 in 5 ml 0.85% saline, then further diluted 1/100 in appropriate medium. 50 μl of the final dilution (in test medium) of each indicator strain was added to each well of a 12-well row. This brings the final dilution of the test article or control compound in solution to 1×. The final inoculum is approximately 5×10^5 CFU/ml.
(§5) The indicator strains were incubated with 11 concentrations of each of Compounds 1 and 2, Vancomycin (Sigma™) control compound and one media alone control. For MIC determination, assay plates were incubated at 35° C. for 18 hours.

[3] = tested on: Bacillus subtilis (ATCC™ 23857); assay: MIC, broth microdilution (NCCLS M7-A5); settings: ATCC23857, 18 h
Description: as §1, §2, §3, §4, §5

[4] = tested on: Enterococcus faecalis VRE-1 (ATCC™ 29212); assay: MIC, broth microdilution (NCCLS M7-A5); settings: 18 h
Description: as §1, §2, §3, §4, §5

[5] = tested on: Enterococcus faecalis VRE-2 (ATCC™ 51299); assay: MIC, broth microdilution (NCCLS M7-A5); settings: 18 h
Description: as §1, §2, §3, §4, §5

[6] = tested on: Micrococcus luteus (ATCC™ 9341); assay: MIC, broth microdilution (NCCLS M7-A5); settings: ATCC9341, 18 h
Description: as §1, §2, §3, §4, §5

[7] = tested on: Staphylococcus aureus (ATCC™ 6538P); assay: MIC, broth microdilution (NCCLS M7-A5); settings: ATCC6538P, 18 h
Description: as §1, §2, §3, §4, §5

[8] = tested on: Staphylococcus aureus MRS3 (ATCC™ 700699); assay: MIC, broth microdilution (NCCLS M7-A5); settings: ATCC700699, 18 h
Description: as §1, §2, §3, §4, §5

[9] = tested on: Staphylococcus epidermidis (ATCC™ 12228); assay: MIC, broth microdilution (NCCLS M7-A5); settings: ATCC12228, 18 h
Description: as §1, §2, §3, §4, §5

in vitro = settings: sheep
Description: A. Toxicity: Acute toxicities were determined using CD-1 female mice (supplied by Charles River Laboratories, Wilmington, Mass.) having a bodyweight of 18-25 g, and about 6 weeks of age. Compounds 1 and 2 at doses ranging from 1 to 70 mg/kg (formulated in 20% propylene glycol/water for a total volume of 10 μL/g of weight) were administered intraperitoneal (i.p.) and intravenous (i.v.) to groups of 5 mice (5 mice per concentration, per mode of administration). Two groups of 3 mice were injected with vehicle only. Mice were observed immediately after injection, within 4 hours and once a day for the subsequent days. Acute toxicity studies of Compound 1 in mice indicated no observable effect and high dose tolerability: 70 mg/kg intraperitoneal and 50 mg/kg intravenous (an MTD of 250 mg/kg was also determined by oral administration). […] In vitro Haemolytic activity results are also shown in Table 7, along with the in vivo toxicity and efficacy of Compound 1.

[10] = S. aureus ATCC 6538P, pH 5.0, read-out: MIC
[11] = S. aureus ATCC 6538P, pH 6.0, read-out: MIC
[12] = S. aureus ATCC 6538P, pH 7.0, read-out: MIC

SMILES | MIC [1, 10] | MIC [1, 11] | MIC [1, 12] | further results
COC(=O)C1OC(OC(/C(C)=C/C(C)CCC/C=C/C(C)C/C=C/CCCN(C)C(=N)N)C(C)/C=C/C=C/C=C/C=C/C=C(\C)C(=O)NC2=C(O)CCC2=O)C(O)C(O)C1O (stereo not shown) [Compound 3, 3,4,5-trihydroxy-6-[1-[11-(2-hydroxy-5-oxocyclopent-1-enylcarbamoyl)-1-methyldodeca-2,4,6,8,10-pentaenyl]-2,4,10-trimethyl-16-(N-methyl-guanidino)-hexadeca-2,8,12-trienyloxy]-tetrahydropyran-2-carboxylic acid methyl ester] | 2 µg/mL (≈ 2.35 µM) | 4 to 8 µg/mL (≈ 4.7 to 9.4 µM) | 16 µg/mL (≈ 18.8 µM) | –
CN[C@H](CC(C)C)C(=O)N[C@H]1C(=O)N[C@@H](CC(N)=O)C(=O)N[C@H]2C(=O)N[C@H]3C(=O)N[C@H](C(=O)N[C@H](C(=O)O)c4cc(O)cc(O)c4-c4cc3ccc4O)[C@H](O)c3ccc(c(Cl)c3)Oc3cc2cc(c3O[C@@H]2O[C@H](CO)[C@@H](O)[C@H](O)[C@H]2O[C@H]2C[C@](C)(N)[C@H](O)[C@H](C)O2)Oc2ccc(cc2Cl)[C@H]1O [Vancomycin, reference compound] | – | – | – | MIC [2]: 0.125 µg/mL (≈ 0.0863 µM); MIC [3]: 0.25 µg/mL (≈ 0.173 µM); MIC [4]: 4 µg/mL (≈ 2.76 µM); MIC [5]: 8 to 16 µg/mL (≈ 5.52 to 11 µM); MIC [6]: 1 µg/mL (≈ 0.69 µM); MIC [7]: 2 µg/mL (≈ 1.38 µM); MIC [8]: 4 µg/mL (≈ 2.76 µM); MIC [9]: 2 µg/mL (≈ 1.38 µM); MIC ([1]; pH 5): 1 µg/mL (≈ 0.69 µM); MIC ([1]; pH 6): 1 µg/mL (≈ 0.69 µM); MIC ([1]; pH 7): 1 µg/mL (≈ 0.69 µM)
C\C(=C/C=C/C=C/C=C/C=C/C(C)C(OC1OC(C(=O)O)C(O)C(O)C1O)/C(C)=C/C(C)CCC/C=C/C(C)C/C=C/CCCN(C)C(=N)N)C(=O)O (stereo not shown) [Compound 7, 6-[1-(11-carboxy-1-methyldodeca-2,4,5,8,10-pentaenyl)-2,4,10-trimethyl-16-(N-methylguanidino)-hexadeca-2,8,12-trienyloxy]-3,4,5-trihydroxy-tetrahydropyran-2-carboxylic acid] | – | – | 32 to 64 µg/mL (≈ 43.1 to 86.3 µM) | –
CC(=O)NC(=N)N(C)CCC/C=C/CC(C)/C=C/CCCC(C)/C=C(\C)C(OC1OC(C(=O)O)C(O)C(O)C1O)C(C)/C=C/C=C/C=C/C=C/C=C(\C)C(=O)NC1=C(O)CCC1=O (stereo not shown) [Compound 6, 6-{16-(N′-acetyl-N-methylguanidino)-1-[11-(2-hydroxy-5-oxocyclopent-1-enylcarbamoyl)-1-methyldodeca-2,4,6,8,10-pentaenyl]-2,4,10-trimethylhexadeca-2,8,12-trienyloxy}-3,4,5-trihydroxytetrahydropyran-2-carboxylic acid] | 0.25 µg/mL (≈ 0.284 µM) | 0.5 µg/mL (≈ 0.569 µM) | 2 µg/mL (≈ 2.28 µM) | –
COC1=C(NC(=O)/C(C)=C/C=C/C=C/C=C/C=C/C(C)C(OC2OC(C(=O)O)C(O)C(O)C2O)/C(C)=C/C(C)CCC/C=C/C(C)C/C=C/CCCN(C)C(=N)N)C(=O)CC1 (stereo not shown) [Compound 4, 3,4,5-trihydroxy-6-[1-[11-(2-methoxy-5-oxo-cyclopent-1-enylcarbamoyl)-1-methyldodeca-2,4,6,8,10-pentaenyl]-2,4,10-trimethyl-16-(N-methyl-guanidino)-hexadeca-2,8,12-trienyloxy]-tetrahydropyran-2-carboxylic acid] | 2 µg/mL (≈ 2.35 µM) | 2 µg/mL (≈ 2.35 µM) | 2 µg/mL (≈ 2.35 µM) | –
COC(=O)C1OC(OC(C(C)=CC(C)CCCC=CC(C)CC=CCCCN(C)C(=N)N)C(C)C=CC=CC=CC=CC=C(C)C(=O)NC2=C(OC)CCC2=O)C(O)C(O)C1O (stereo not shown) [Compound 5, 3,4,5-trihydroxy-6-[1-[11-(2-methoxy-5-oxo-cyclopent-1-enylcarbamoyl)-1-methyldodeca-2,4,6,8,10-pentaenyl]-2,4,10-trimethyl-16-(N-methyl-guanidino)-hexadeca-2,8,12-trienyloxy]-tetrahydropyran-2-carboxylic acid methyl ester] | 2 µg/mL (≈ 2.31 µM) | 4 µg/mL (≈ 4.62 µM) | 4 µg/mL (≈ 4.62 µM) | –
C[C@@H]1[C@H](O)[C@@H](C)/C=C/C=C/C=C/C=C/C=C/C=C/C=C/[C@H](O[C@@H]2O[C@H](C)[C@@H](O)[C@H](N)[C@@H]2O)C[C@@H]2O[C@](O)(C[C@@H](O)C[C@@H](O)[C@H](O)CC[C@@H](O)C[C@@H](O)CC(=O)O[C@H]1C)C[C@H](O)[C@H]2C(=O)O [Amphotericin, reference compound] | – | – | – | EC50 (in vitro): 3 µg/mL (≈ 3.25 µM)
